Literature values, collected in PMC3378994 (Bioorganic & medicinal chemistry letters, 2012).

Target: DAT (Rattus norvegicus, UniProt P23977)
Sequence (P23977 whole entry): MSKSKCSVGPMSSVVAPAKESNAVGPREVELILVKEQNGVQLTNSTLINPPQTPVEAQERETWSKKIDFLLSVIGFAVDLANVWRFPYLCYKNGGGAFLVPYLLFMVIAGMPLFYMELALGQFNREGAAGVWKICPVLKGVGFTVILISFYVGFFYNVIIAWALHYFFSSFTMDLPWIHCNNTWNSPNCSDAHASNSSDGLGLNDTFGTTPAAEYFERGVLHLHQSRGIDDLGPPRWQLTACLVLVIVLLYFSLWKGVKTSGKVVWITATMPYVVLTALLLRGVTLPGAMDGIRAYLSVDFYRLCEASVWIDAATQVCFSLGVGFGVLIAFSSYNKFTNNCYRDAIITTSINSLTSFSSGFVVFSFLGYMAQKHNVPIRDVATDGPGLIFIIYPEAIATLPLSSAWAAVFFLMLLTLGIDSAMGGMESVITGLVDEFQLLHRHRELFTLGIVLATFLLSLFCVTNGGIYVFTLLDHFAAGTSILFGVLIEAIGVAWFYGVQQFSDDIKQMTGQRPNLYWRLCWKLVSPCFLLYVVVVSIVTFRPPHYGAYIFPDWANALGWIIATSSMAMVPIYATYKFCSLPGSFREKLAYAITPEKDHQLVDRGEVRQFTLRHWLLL

Cc1ccc([C@H]2C[C@@H]3CC[C@H]([C@H]2C(=O)OCC[18F])N3C/C=C/I)cc1 [[^18F]FE-PE2I]
Fold lower affinity to other monoamine transporters than to DAT: more than 50 fold
